According to patent publication US12421249B2, “Inhibitors of APOL1 and methods of using same” (Vertex Pharmaceuticals Incorporated, priority 2020, dated 2025):

Biological target: T1, APOL1 (Homo sapiens, UniProt O14791)
T1 sequence (O14791 1-398 S342G/I384M): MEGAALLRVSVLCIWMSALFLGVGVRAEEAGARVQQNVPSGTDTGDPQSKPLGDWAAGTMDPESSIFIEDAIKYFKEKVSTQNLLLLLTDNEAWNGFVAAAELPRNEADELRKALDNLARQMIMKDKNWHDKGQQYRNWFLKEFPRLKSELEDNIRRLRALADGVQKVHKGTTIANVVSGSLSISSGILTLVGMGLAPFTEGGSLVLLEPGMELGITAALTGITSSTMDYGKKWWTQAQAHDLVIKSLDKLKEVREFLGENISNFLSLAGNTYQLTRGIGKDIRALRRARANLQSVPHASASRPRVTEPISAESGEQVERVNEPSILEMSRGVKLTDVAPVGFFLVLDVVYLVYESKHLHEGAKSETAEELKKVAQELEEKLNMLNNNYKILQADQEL
Assay: Multi-Tox Assay (MultiTox-Fluor Multiplex Cytotoxicity Assay in tet-inducible APOL1 T-REx-HEK293 cells; Table 46 does not say which APOL1 variant G0/G1/G2)
Assay type: cell-based
Details: APOL1 variant not given; for IC50: IP50 = IC50 for cell proliferation

SMILES	Multi-Tox Assay Max Activity (%)	IC50 [nM]
C[C@H]1C[C@@]2(C[C@@H](c3cn(CCC4CCCOC4)nn3)N1)OCC(F)(F)c1cc(Cl)sc12 (stereo partly drawn) [Compound 314]	99.0	< 50
Cc1ccccc1C(O)Cn1cc([C@@H]2C[C@]3(C[C@H](C)N2)OC[C@@H](O)c2cc(Cl)sc23)nn1 (stereo partly drawn) [Compound 261]	100.0	50 to 500
COCC(O)Cn1cc([C@@H]2C[C@]3(C[C@H](C)N2)OCC(F)(F)c2cc(Cl)sc23)nn1 (stereo partly drawn) [Compound 342]	98.0	50 to 500
C[C@H]1C[C@@]2(C[C@@H](c3cn(Cc4cocn4)nn3)N1)OCC(F)(F)c1cc(Cl)sc12 [Compound 331]	98.0	< 50
C#C[C@@H]1C[C@]2(C[C@H](C)N1)OCC(F)(F)c1cc(Cl)sc12 [Compound 223, (2′S,6′S,7S)-2-chloro-2′-ethynyl-4,4-difluoro-6′-methyl-spiro[5H-thieno[2,3-c]pyran-7,4′-piperidine]]		> 500
C[C@H]1C[C@@]2(C[C@@H](c3cn(Cc4ccc(OC5CCOCC5)cc4)nn3)N1)OCC(F)(F)c1cc(Cl)sc12 [Compound 308]	95.0	50 to 500
C[C@H]1C[C@@]2(C[C@@H](c3cn(CCOc4ccccc4F)nn3)N1)OCC(F)(F)c1cc(Cl)sc12 [Compound 354]	99.0	50 to 500
C[C@H]1C[C@@]2(C[C@@H](c3cn(Cc4cncs4)nn3)N1)OC[C@@H](O)c1cc(Cl)sc12 [Compound 248]		< 50
C[C@H]1C[C@@]2(C[C@@H](c3cn(CCOc4ccccc4F)nn3)N1)OC[C@@H](O)c1cc(Cl)sc12 [Compound 301]	99.0	< 50
C[C@H]1C[C@@]2(C[C@@H](c3cn(Cc4cccc5c4OCCO5)nn3)N1)OCC(F)(F)c1cc(Cl)sc12 [Compound 310]	94.0	50 to 500
C[C@H]1C[C@@]2(C[C@@H](c3cn(CC4CCCCO4)nn3)N1)OCC(F)(F)c1cc(Cl)sc12 (stereo partly drawn) [Compound 343]	97.0	50 to 500
COc1ccc(Cn2cc([C@@H]3C[C@]4(C[C@H](C)N3)OCC(F)(F)c3cc(Cl)sc34)nn2)cn1 [Compound 360]	99.0	50 to 500
Cc1noc(C)c1Cn1cc([C@@H]2C[C@]3(C[C@H](C)N2)OCC(F)(F)c2cc(Cl)sc23)nn1 [Compound 353]	100.0	< 50
C[C@H]1C[C@@]2(C[C@@H](c3cn(CC(=O)N4CCCCC4)nn3)N1)OC[C@@H](O)c1cc(Cl)sc12 [Compound 239]	97.0	50 to 500
COc1ccc(C(O)Cn2cc([C@@H]3C[C@]4(C[C@H](C)N3)OCC(F)(F)c3cc(Cl)sc34)nn2)cc1 (stereo partly drawn) [Compound 348]	97.0	50 to 500
C[C@H]1C[C@@]2(C[C@@H](c3cn(Cc4n[nH]c5ccccc45)nn3)N1)OC[C@@H](O)c1cc(Cl)sc12 [Compound 232]	100.0	< 50
Cc1ccc(Cn2cc([C@@H]3C[C@]4(C[C@H](C)N3)OC[C@@H](O)c3cc(Cl)sc34)nn2)nc1 [Compound 294]	100.0	50 to 500
C[C@H]1C[C@@]2(C[C@@H](c3cn(CC4(CO)CCOCC4)nn3)N1)OC[C@@H](O)c1cc(Cl)sc12 [Compound 240]	95.0	50 to 500
Cc1cc(C)nc(CCn2cc([C@@H]3C[C@]4(C[C@H](C)N3)OCC(F)(F)c3cc(Cl)sc34)nn2)c1 [Compound 351]	98.0	< 50
CC(CO)CCn1cc([C@@H]2C[C@]3(C[C@H](C)N2)OC[C@@H](O)c2cc(Cl)sc23)nn1 (stereo partly drawn) [Compound 264]	100.0	< 50
C[C@H]1C[C@@]2(C[C@@H](c3cn(Cc4ccc(OC5CCOCC5)cc4)nn3)N1)OC[C@@H](O)c1cc(Cl)sc12 [Compound 266]	100.0	< 50
COC(=O)Cn1cc([C@@H]2C[C@]3(C[C@H](C)N2)OC[C@@H](O)c2cc(Cl)sc23)nn1 [Compound 263]		> 500
C[C@H]1C[C@@]2(C[C@@H](c3cn(Cc4ccc5nc(O)[nH]c5c4)nn3)N1)OC[C@@H](O)c1cc(Cl)sc12 [Compound 249]	92.0	50 to 500
CCC(O)Cn1cc([C@@H]2C[C@]3(C[C@H](C)N2)OC[C@@H](O)c2cc(Cl)sc23)nn1 (stereo partly drawn) [Compound 284]		50 to 500
C[C@H]1C[C@@]2(C[C@@H](c3cn(Cc4ccc(O)nc4)nn3)N1)OC[C@@H](O)c1cc(Cl)sc12 [Compound 275]	94.0	50 to 500

SMILES	Multi-Tox Assay Max Activity (%)	IC50 [nM]
C[C@H]1C[C@@]2(C[C@@H](c3cn(Cc4cocn4)nn3)N1)OC[C@@H](O)c1cc(Cl)sc12 [Compound 291]	100.0	50 to 500
C[C@H]1C[C@@]2(C[C@@H](c3cn(Cc4ccc(O)nc4)nn3)N1)OCC(F)(F)c1cc(Cl)sc12 [Compound 316]	95.0	50 to 500
Cc1nc(Cn2cc([C@@H]3C[C@]4(C[C@H](C)N3)OC[C@@H](O)c3cc(Cl)sc34)nn2)oc1C [Compound 297]	99.0	< 50
COc1ccc(Cn2cc([C@@H]3C[C@]4(C[C@H](C)N3)OC[C@@H](O)c3cc(Cl)sc34)nn2)cc1F [Compound 245]	99.0	< 50
C[C@H]1C[C@@]2(C[C@@H](c3cn(CC4CCOCC4)nn3)N1)OCC(F)(F)c1cc(Cl)sc12 [Compound 309]	97.0	50 to 500
CC(CO)CCn1cc([C@@H]2C[C@]3(C[C@H](C)N2)OCC(F)(F)c2cc(Cl)sc23)nn1 (stereo partly drawn) [Compound 306]	99.0	> 500
C#C[C@@H]1C[C@]2(C[C@H](C)N1)OC[C@@H](O)c1cc(Cl)sc12 [Compound 222, (2′S,4S,6′S,7S)-2-chloro-2′-ethynyl-6′-methyl-spiro[4,5-dihydrothieno[2,3-c]pyran-7,4′-piperidine]-4-ol]		50 to 500
C[C@H]1C[C@@]2(C[C@@H](c3cn(CCCS(C)(=O)=O)nn3)N1)OCC(F)(F)c1cc(Cl)sc12 [Compound 344]	99.0	< 50
C[C@H]1C[C@@]2(C[C@@H](c3cn(Cc4cccc(CO)c4)nn3)N1)OCC(F)(F)c1cc(Cl)sc12 [Compound 313]	98.0	50 to 500
Cc1cccc(OCC(O)Cn2cc([C@@H]3C[C@]4(C[C@H](C)N3)OCC(F)(F)c3cc(Cl)sc34)nn2)c1 (stereo partly drawn) [Compound 303]	99.0	50 to 500
C[C@H]1C[C@@]2(C[C@@H](c3cn(Cc4cnc5cnccn45)nn3)N1)OCC(F)(F)c1cc(Cl)sc12 [Compound 358]	98.0	< 50
C[C@H]1C[C@@]2(C[C@@H](c3cn(CC4(F)CCOCC4)nn3)N1)OC[C@@H](O)c1cc(Cl)sc12 [Compound 289]		> 500
CCn1cc(Cn2cc([C@@H]3C[C@]4(C[C@H](C)N3)OCC(F)(F)c3cc(Cl)sc34)nn2)cn1 [Compound 330]	99.0	< 50
C[C@H]1C[C@@]2(C[C@@H](c3cn(CC4CCOC4)nn3)N1)OCC(F)(F)c1cc(Cl)sc12 (stereo partly drawn) [Compound 311]	99.0	< 50
C[C@H]1C[C@@]2(C[C@@H](c3cn(Cc4cnccn4)nn3)N1)OCC(F)(F)c1cc(Cl)sc12 [Compound 317]	98.0	50 to 500
CC(C)C(=O)NCCn1cc([C@@H]2C[C@]3(C[C@H](C)N2)OC[C@@H](O)c2cc(Cl)sc23)nn1 [Compound 230]	98.0	50 to 500
C[C@H]1C[C@@]2(C[C@@H](c3cn(Cc4ccc(S(C)(=O)=O)cc4)nn3)N1)OCC(F)(F)c1cc(Cl)sc12 [Compound 355]	98.0	50 to 500
C[C@H]1C[C@@]2(C[C@@H](c3cn(C[C@@H](O)CO)nn3)N1)OC[C@@H](O)c1cc(Cl)sc12 [Compound 246]	97.0	50 to 500
COc1ccc(Cn2cc([C@@H]3C[C@]4(C[C@H](C)N3)OCC(F)(F)c3cc(Cl)sc34)nn2)cc1 [Compound 335]	96.0	50 to 500
C[C@H]1C[C@@]2(C[C@@H](c3cn(Cc4ccc(O)cc4)nn3)N1)OC[C@@H](O)c1cc(Cl)sc12 [Compound 259]	100.0	50 to 500
CNC(=O)C(C)Cn1cc([C@@H]2C[C@]3(C[C@H](C)N2)OC[C@@H](O)c2cc(Cl)sc23)nn1 (stereo partly drawn) [Compound 258]	98.0	50 to 500
Cc1ccnn1CCn1cc([C@@H]2C[C@]3(C[C@H](C)N2)OCC(F)(F)c2cc(Cl)sc23)nn1 [Compound 315]	98.0	50 to 500
C[C@H]1C[C@@]2(C[C@@H](c3cn(CC(C)(C)O)nn3)N1)OC[C@@H](O)c1cc(Cl)sc12 [Compound 247]		50 to 500
Cc1noc(C)c1Cn1cc([C@@H]2C[C@]3(C[C@H](C)N2)OC[C@@H](O)c2cc(Cl)sc23)nn1 [Compound 237]	99.0	< 50
CCn1cc(Cn2cc([C@@H]3C[C@]4(C[C@H](C)N3)OC[C@@H](O)c3cc(Cl)sc34)nn2)cn1 [Compound 290]	99.0	50 to 500
